PMC7144022, “Quinolinecarboxamides Inhibit the Replication of the Bovine Viral Diarrhea Virus by Targeting a Hot Spot for the Inhibition of Pestivirus Replication in the RNA-Dependent RNA Polymerase” (Molecules, 2020)

What was measured:
[1] = Cytotoxicity assay, proliferation of exponentially growing MDBK cells (MTS/PMS); format: cell-based, bovine; settings: bovine
Procedure: Assays were carried out, as described previously.

BVDV NADL virus = assay: CPE-based antiviral assay, BVDV NADL in MDBK cells (MTS/PMS); settings: for EC50: Bovine viral diarrhea virus isolates and strains, MDBK, 72 h; for S.I.: selectivity index, CC50 vs EC50
[2] = sheet CSFCI#, potency relative to TO505-6180 (EC50 0.07 µM)
[3] = sheet CSFCII#, potency relative to TO502-2403 (EC50 0.2 µM)

Row | SMILES | CC50 at 5 days [1] [µM] | EC50 (BVDV NADL virus) [µM] | S.I. (BVDV NADL virus) | fold increase (BVDV NADL virus; [2]) | fold increase (BVDV NADL virus; [3])
1 | Cc1cccc2sc(NC(=O)c3cc(-c4ccccc4)nc4ccccc34)nc12 [CSFC-1, Cc1cccc2sc(nc12)NC(=O)c1cc(nc2ccccc21)c1ccccc1] | > 100 | 0.3 | 333 | 0.23 | 
2 | CCOc1ccc2nc(NC(=O)c3cc(-c4ccccc4)nc4ccccc34)sc2c1 [CSFC-58, CCOc1ccc2nc(sc2c1)NC(=O)c4cc(nc3ccccc34)c5ccccc5] | > 100 | 3.3 | 30 |  | 0.06
3 | Cc1cccc2sc(NC(=O)c3cc(-c4ccc(F)cc4)nc4ccccc34)nc12 [CSFC-66, Fc1ccc(cc1)c3nc2ccccc2c(c3)C(=O)Nc4nc5c(C)cccc5s4] | > 100 | 0.2 | 500 |  | 1.00
4 | Cc1cccc(-n2ccc(NC(=O)c3cc(-c4ccccc4)nc4ccccc34)n2)c1 [CSFC-133, Cc1cccc(c1)n2ccc(n2)NC(=O)c4cc(nc3ccccc34)c5ccccc5] | > 100 | 0.02 |  |  | 10.00
5 | COc1ccc2nc(NC(=O)c3cc(-c4ccc(F)cc4)nc4ccccc34)sc2c1 [CSFC-68, Fc1ccc(cc1)c3nc2ccccc2c(c3)C(=O)Nc4nc5ccc(cc5s4)OC] | > 100 | 0.2 | 500 |  | 1.00
6 | Cc1cccc2sc(NC(=O)c3cc(-c4ccco4)nc4ccccc34)nc12 [CSFC-35, Cc1cccc2sc(nc12)NC(=O)c1cc(nc2ccccc21)c1ccco1] | > 100 | 0.3 | 333 | 0.23 | 
7 | O=C(Nc1cc(-c2ccc(Br)cc2)on1)c1cc(-c2ccccc2)nc2ccccc12 [CSFC-43, O=C(Nc1cc(on1)c2ccc(Br)cc2)c4cc(nc3ccccc34)c5ccccc5] | > 100 | 4 | 26 |  | 0.05
8 | Cc1ccc2nc(NC(=O)c3cc(-c4ccccc4)nc4ccccc34)sc2c1 [CSFC-2, Cc1ccc2nc(NC(=O)c3cc(nc4ccccc43)c3ccccc3)sc2c1] | > 100 | 5.7 | 18 | 0.0123 | 
9 | O=C(Nc1nc2c(C(F)(F)F)cccc2s1)c1cc(-c2ccccc2)nc2ccccc12 [CSFC-148, FC(F)(F)c1cccc2sc(nc12)NC(=O)c1cc(nc2ccccc21)c1ccccc1] | 20 ± 1.6 | 0.3 | 67 | 0.23 | 
10 | O=C(Nc1nc2ccc(F)cc2s1)c1cc(-c2ccccc2)nc2ccccc12 [CSFC-18, Fc1ccc2nc(NC(=O)c3cc(nc4ccccc43)c3ccccc3)sc2c1] | > 100 | 0.3 | 333 | 0.23 | 
11 | O=C(Nc1nc2c(F)cc(Br)cc2s1)c1cc(-c2ccccc2)nc2ccccc12 [CSFC-147, Fc1cc(Br)cc2sc(nc12)NC(=O)c1cc(nc2ccccc21)c1ccccc1] | 6.2 ± 1.1 | 0.01 |  | 7.00 | 
12 | O=C(Nc1nc2ccc(Cl)cc2s1)c1cc(-c2ccccc2)nc2ccccc12 [CSFC-10, Clc1ccc2nc(NC(=O)c3cc(nc4ccccc43)c3ccccc3)sc2c1] | > 100 | 0.5 | 200 | 0.14 | 
13 | Cc1cccc2sc(NC(=O)c3cc(-c4cnccn4)nc4ccccc34)nc12 [CSFC-116, Cc1cccc2sc(nc12)NC(=O)c4cc(nc3ccccc34)c5cnccn5] | > 100 | 0.3 | 333 |  | 0.67
14 | O=C(Nc1nc2ccc([N+](=O)[O-])cc2s1)c1cc(-c2ccccc2)nc2ccccc12 [CSFC-12, [O-][N+](=O)c1ccc2nc(NC(=O)c3cc(nc4ccccc43)c3ccccc3)sc2c1] | 46.8 | > 100 | 0.5 | 0.0007 | 
15 | COc1ccc2nc(NC(=O)c3cc(-c4ccco4)nc4ccc(C)cc34)sc2c1 [CSFC-73, O=C(c2cc(nc1ccc(cc12)C)c3ccco3)Nc4nc5ccc(cc5s4)OC] | > 100 | 11.5 | 9 |  | 0.0174
16 | Cc1noc(C)c1NC(=O)c1cc(-c2ccccc2)nc2ccccc12 [CSFC-36, O=C(Nc1c(C)onc1C)c3cc(nc2ccccc23)c4ccccc4] | > 100 | 47.2 | 2 |  | 0.00424
17 | COc1ccc(-n2ccc(NC(=O)c3cc(-c4ccc(F)cc4)nc4ccccc34)n2)cc1 [CSFC-91, Fc1ccc(cc1)c3nc2ccccc2c(c3)C(=O)Nc4ccn(n4)c5ccc(OC)cc5] | > 100 | 1 | 100 |  | 0.20
18 | Cc1cc(NC(=O)c2cc(-c3ccccc3)nc3ccccc23)on1 [CSFC-41, O=C(Nc1cc(C)no1)c3cc(nc2ccccc23)c4ccccc4] | > 100 | 34.6 | 3 |  | 0.00578

Row | SMILES | CC50 at 5 days [1] [µM] | EC50 (BVDV NADL virus) [µM] | S.I. (BVDV NADL virus) | fold increase (BVDV NADL virus; [2]) | fold increase (BVDV NADL virus; [3])
19 | Cc1cccc2sc(NC(=O)c3cc(-c4ccco4)nc4ccc(C(F)(F)OF)cc34)nc12 [CSFC-79, FC(F)(OF)c1cc2c(cc1)nc(cc2C(=O)Nc1nc2c(C)cccc2s1)c1ccco1] | > 100 | 2.5 | 40 |  | 0.08
20 | Cc1cc2nc(NC(=O)c3cc(-c4ccccc4)nc4ccccc34)sc2cc1C [CSFC-11, Cc1cc2nc(NC(=O)c3cc(nc4ccccc43)c3ccccc3)sc2cc1C] | > 100 | 0.3 | 333 | 0.23 | 
21 | Cc1cc(C)c2nc(-c3ccco3)cc(C(=O)Nc3nc4c(C)cccc4s3)c2c1 [CSFC-75, Cc5cc1c(nc(cc1C(=O)Nc2nc3c(C)cccc3s2)c4ccco4)c(C)c5] | > 100 | 5.3 | 19 |  | 0.0377
22 | CCOc1ccc2nc(NC(=O)c3cc(-c4ccco4)nc4ccccc34)sc2c1 [CSFC-57, CCOc1ccc2nc(sc2c1)NC(=O)c4cc(nc3ccccc34)c5ccco5] | > 100 | 0.5 | 200 |  | 0.40
23 | Cc1cccc2sc(NC(=O)c3cc(-c4cccs4)nc4ccc(Br)cc34)nc12 [CSFC-95, Brc1cc2c(cc1)nc(cc2C(=O)Nc3nc4c(C)cccc4s3)c5cccs5] | > 100 | 3.1 | 32 |  | 0.0645
24 | O=C(Nc1nc2c(Cl)cccc2s1)c1cc(-c2ccccc2)nc2ccccc12 [CSFC-15, Clc1cccc2sc(nc21)NC(=O)c1cc(nc2ccccc21)c1ccccc1] | > 100 | 0.8 | 125 | 0.09 | 
25 | O=C(Nc1ccn(-c2ccccc2)n1)c1cc(-c2cccc3ccccc23)nc2ccccc12 [CSFC-143, O=C(c2cc(nc1ccccc12)c4cccc3ccccc34)Nc5ccn(n5)c6ccccc6] | > 100 | 0.1 | 1000 |  | 2.00
26 | O=C(Nc1ccn(-c2ccccc2)n1)c1cc(-c2ccccc2F)nc2c(F)cccc12 [CSFC-102, Fc1ccccc1c3nc2c(cccc2F)c(c3)C(=O)Nc4ccn(n4)c5ccccc5] | > 100 | 0.3 | 333 |  | 0.67
27 | COc1ccc2nc(NC(=O)c3cc(-c4ccco4)nc4ccc(OC)cc34)sc2c1 [CSFC-64, O=C(c2cc(nc1ccc(OC)cc12)c3ccco3)Nc4nc5ccc(cc5s4)OC] | > 100 | 16 | 6 |  | 0.0125
28 | COc1ccc2nc(NC(=O)c3cc(-c4ccsc4)nc4ccccc34)sc2c1 [CSFC-82, O=C(c2cc(nc1ccccc12)c3ccsc3)Nc4nc5ccc(cc5s4)OC] | > 100 | 0.2 | 500 |  | 1.00
29 | O=C(Nc1ccn(-c2ccccc2)n1)c1cc(-c2ccc(Cl)s2)nc2ccccc12 [CSFC-53, Clc1ccc(s1)c3nc2ccccc2c(c3)C(=O)Nc4ccn(n4)c5ccccc5] | > 100 | 77.5 | 1 |  | 0.00258
30 | O=C(Nc1ccn(-c2ccc(F)cc2)n1)c1cc(-c2ccccc2)nc2ccccc12 [CSFC-128, Fc1ccc(cc1)n2ccc(n2)NC(=O)c4cc(nc3ccccc34)c5ccccc5] | > 100 | 0.5 | 200 |  | 0.40
31 | Cc1cc(C)c2sc(NC(=O)c3cc(-c4ccccc4)nc4ccccc34)nc2c1 [CSFC-149, Cc1cc2nc(NC(=O)c3cc(nc4ccccc43)c3ccccc3)sc2c(C)c1] | > 100 | 0.2 | 500 | 0.35 | 
32 | COc1ccc2nc(NC(=O)c3cc(-c4ccco4)nc4c(C)cc(C)cc34)sc2c1 [CSFC-65, O=C(c2cc(nc1c2cc(cc1C)C)c3ccco3)Nc4nc5ccc(cc5s4)OC] | > 100 | 5.8 | 17 |  | 0.0345
33 | O=C(Nc1nc2ccccc2s1)c1cc(-c2ccccc2)nc2ccccc12 [CSFC-13, O=C(Nc1nc2ccccc2s1)c1cc(nc2ccccc21)c1ccccc1] | > 100 | 1.2 |  | 0.06 | 
34 | Cc1cccc2sc(NC(=O)c3cc(-c4cccs4)nc4c(F)cccc34)nc12 [CSFC-101, Fc5cccc1c5nc(cc1C(=O)Nc2nc3c(C)cccc3s2)c4cccs4] | 23.2 | 0.3 | 77 |  | 0.67
35 | O=C(Nc1ccn(-c2ccccc2)n1)c1cc(-c2cccc(F)c2)nc2ccccc12 [CSFC-69, Fc1cccc(c1)c3nc2ccccc2c(c3)C(=O)Nc4ccn(n4)c5ccccc5] | > 100 | 0.1 | 1000 |  | 2.00
36 | O=C(Nc1ccn(-c2cccc(F)c2)n1)c1cc(-c2ccccc2)nc2ccccc12 [CSFC-126, Fc1cccc(c1)n2ccc(n2)NC(=O)c4cc(nc3ccccc34)c5ccccc5] | > 100 | 0.6 | 167 |  | 0.33
